According to patent EP4741392A1, “1H-PYRAZOLO[4,3-C]PYRIDINE COMPOUND, AND COMPOSITION THEREOF AND USE THEREOF” (Shenzhen TargetRx Co., Ltd., priority 2023, dated 2025):

Legend:
Format in all cases: cell-based
[1] = tested on: Ramos cells with BTK WT; assay: Phosphor-BTK(Y223) assay, suspended cells; settings: Homo sapiens, Ramos, phosphorylated BTK Y223, Ramos cells with BTK WT
Procedure: (§1) The purpose of this assay was to simply, quickly and directly detect the level of endogenous BTK phosphorylation in cells.
The steps for handling suspended cells were as follows: • 1) Ramos cells with BTK WT (2.5 k/well), BTK C481S (2.5 k/well), or BTK T474I (2.5 k/well) were plated in a 96-well plate, respectively. A compound of different concentration gradients was added using Tecan D300e, and the plate was incubated at 37 °C and 5% CO2 for 2 hours. • 2) 8.33 µL of 20 mM Na3VO4 was added to bring the final concentration to 5 mM, and the plate was incubated at 37 °C and 5% CO2 for 3 h. • 3) During the incubation, the following reagents were prepared: • 4x added lysis buffer: 24 vol 4x lysis buffer + 1 vol 25x blocking reagent. • p-BTK (Y223) cryptate-antibody and p-BTK (Y223) d2-antibody working solutions: 1 volume of each cryopreserved antibody (stored at - 20 °C) was added to 38 times the volume of assay buffer (stored at 4 °C), and mixed well. • 4) After the incubation was completed, 11.1 µL of 4x added lysis buffer was directly added. The plate was shaken at 800 rpm at room temperature for 30 min. • 5) The lysate was mixed well and 16 µL of it was transferred to a 384-well plate. 1 × added lysis buffer was used as a blank control. • 6) 4 µL of pre-mixed working solutions of the two antibodies (cryptate Ab:d2 Ab = 1:1) was added, and the plate was sealed. • 7) The plate was incubated at room temperature overnight. • 8) The plate was read at 665nm and 620nm using Biotek cytation3.0 microplate reader, and the ratio of 665/620nm of each well was calculated. Data analysis: IC50 was calculated using GraphPad Prism 7.0 software.
(§2) The IC50 (half-maximal phosphorylation inhibitory concentration) of the phosphorylated BTK Y223 of the compound was obtained using the following nonlinear fitting formula: Y = Bottom + (Top−Bottom)/(1+10^(∧)((LogIC50−X)*HillSlope)) [formula] • X: Log value of the compound concentration • Y: Inhibition rate (% inhibition) • Top: Maximum response • Bottom: Baseline response • HillSlope: Slope of the curve
(§3) The formula for calculating cell phosphorylation inhibition rate (inhibition rate %) was: Inhibition rate% = 1−(eachconcentrationwell-blankwell)/(positivecontrolwell−blankwell) [formula]

[2] = tested on: NIH/3T3 BTK WT cells; assay: Phosphor-BTK(Y223) assay, adherent cells; settings: Mus musculus, NIH3T3, phosphorylated BTK Y223, NIH/3T3 BTK WT cells; read-out: NIH/3T3 BTK-WT pBTK
Procedure: as §1
(§4) The steps for handling adherent cells were as follows: • 1) NIH/3T3 BTK WT cells (7.5 k/well) and NIH/3T3 BTK C481S cells (10 k/well) were plated in a 96-well plate, respectively, and cultured at 37 °C and 5% CO2 overnight. • 2) A 3-fold final concentration gradient dilution of a compound was prepared, and 50 µL of it was taken and added to 100 µL of cell culture. 0.5% DMSO was used as a positive control for cell growth. • 3) The plate was incubated at 37 °C and 5% CO2 for 0.5 h. • 4) Na3VO4 at a final concentration of 1mM was added, and the plate was incubated at 37 °C and 5% CO2 for 2 hours. • 5) During the incubation, the following reagents were prepared: • 1x added lysis buffer: 3 vol ddH2O + 1 vol 4x lysis buffer + 100x blocking reagent. • p-BTK (Y223) cryptate-antibody and p-BTK (Y223) d2-antibody working solutions: 1 volume of each cryopreserved antibody (stored at - 20 °C) was added to 19 times the volume of assay buffer (stored at 4 °C). • 6) After the incubation was completed, the medium was removed and 50 µL of 1x added lysis buffer was added. The plate was centrifuged at 500 rpm at room temperature for 30 min. • 7) The lysate was mixed well and 16 µL of it was transferred to a 384-well plate. 1 × added lysis buffer was used as a blank control. • 8) 4 µL of pre-mixed working solutions of the two antibodies (cryptate Ab:d2 Ab = 1:1) was added, and the plate was sealed. • 9) The plate was incubated at room temperature overnight. 10) The plate was read at 665nm and 620nm using Biotek cytation3.0 microplate reader, and the ratio of 665/620nm of each well was calculated.
as §2, §3

[3] = tested on: NIH/3T3 BTK C481S cells; assay: Phosphor-BTK(Y223) assay, adherent cells; settings: Mus musculus, NIH3T3, phosphorylated BTK Y223, NIH/3T3 BTK C481S cells; read-out: NIH/3T3 BTK-C481S pBTK
Procedure: as §1, §4, §2, §3

| SMILES | IC50 [1] [nM] | IC50 [2] [nM] | IC50 [3] [nM] |
| --- | --- | --- | --- |
| COc1ccc(F)cc1C(=O)NCc1ccc(-c2ncc(-c3cncnc3)c3[nH]nc(N)c23)cc1 [Example 16, N-(4-(3-amino-7-(pyrimidin-5-yl)-1H-pyrazolo[4,3-c]pyridin-4-yl)benzyl)-5-fluoro-2-methoxybenzamide] | > 50 | > 50 | > 50 |
| COc1ccc(F)cc1C(=O)NCc1ccc(-c2ncc(-c3ccnnc3)c3[nH]nc(N)c23)cc1 [Example 20, N-(4-(3-amino-7-(pyridazin-4-yl)-1H-pyrazolo[4,3-c]pyridin-4-yl)benzyl)-5-fluoro-2-methoxybenzamide] | > 50 | > 50 | > 50 |
| COc1ccc(F)cc1C(=O)NCc1ccc(-c2ncc(-c3ccnn3C)c3[nH]nc(N)c23)cc1 [Example 32, N-(4-(3-amino-7-(1-methyl-1H-pyrazol-5-yl)-1H-pyrazolo[4,3-c]pyridin-4-yl)benzyl)-5-fluoro-2-methoxybenzamide] | > 50 | > 50 | > 50 |
| COc1ccc(F)cc1C(=O)NCc1ccc(-c2ncc(-c3cnn4ccccc34)c3[nH]nc(N)c23)cc1 [Example 33, N-(4-(3-amino-7-(pyrazolo[1,5-a]pyridin-3-yl)-1H-pyrazolo[4,3-c]pyridin-4-yl)benzyl)-5-fluoro-2-methoxybenzamide] | > 50 | > 50 | > 50 |
| COc1ccc(F)cc1C(=O)NCc1ccc(-c2ncc(-c3cnc4ccnn4c3)c3[nH]nc(N)c23)cc1 [Example 34, N-(4-(3-amino-7-(pyrazolo[1,5-a]pyrimidin-6-yl)-1H-pyrazolo[4,3-c]pyridin-4-yl)benzyl)-5-fluoro-2-methoxybenzamide] | > 50 | > 50 | > 50 |
| COc1ccc(F)cc1C(=O)NCc1ccc(-c2ncc(-c3cnc4ccccn34)c3[nH]nc(N)c23)cc1 [Example 55, N-(4-(3-amino-7-(imidazo[1,2-a]pyridin-3-yl)-1H-pyrazolo[4,3-c]pyridin-4-yl)benzyl)-5-fluoro-2-methoxybenzamide] | > 50 | > 50 | > 50 |
| COc1ccc(F)cc1C(=O)NCc1ccc(-c2ncc(-c3cnc4ncccn34)c3[nH]nc(N)c23)cc1 [Example 63, N-(4-(3-amino-7-(imidazo[1,2-a]pyrimidin-3-yl)-1H-pyrazolo[4,3-c]pyridin-4-yl)benzyl)-5-fluoro-2-methoxybenzamide] | > 50 | > 50 | > 50 |
| COc1ccc(F)cc1C(=O)NCc1ccc(-c2ncc(-c3cnc4cnccn34)c3[nH]nc(N)c23)cc1 [Example 64, N-(4-(3-amino-7-(imidazo[1,2-a]pyrazin-3-yl)-1H-pyrazolo[4,3-c]pyridin-4-yl)benzyl)-5-fluoro-2-methoxybenzamide] | > 50 | > 50 | > 50 |
| COc1ccc(F)cc1C(=O)NCc1ccc(-c2ncc(C(=O)NC3CC3)c3[nH]nc(N)c23)cc1 [Example 81, 3-amino-N-cyclopropyl-4-(4-((5-fluoro-2-methoxybenzoylamino)methyl)phenyl)-1H-pyrazolo[4,3-c]pyridine-7-carboxamide] | > 50 | > 50 | > 50 |
| COc1ccc(F)cc1C(=O)NCc1ccc(-c2cc(C(C)C(F)(F)F)cc3[nH]nc(N)c23)cc1 (centres unmarked) [Example 86, N-(4-(3-amino-6-(1,1,1-trifluoropropan-2-yl)-1H-indazol-4-yl)benzyl)-5-fluoro-2-methoxybenzamide] |  | > 50 | > 50 |

The next lines start with results.

| IC50 [1] [nM] | SMILES | IC50 [2] [nM] | IC50 [3] [nM] |
| --- | --- | --- | --- |
| > 50 | COc1ccc(F)cc1C(=O)NCc1ccc(-c2nc(C(C)C(F)(F)F)c(Br)c3[nH]nc(N)c23)cc1 (centres unmarked) [Example 4, N-(4-(3-amino-7-bromo-6-(1,1,1-trifluoropropan-2-yl)-1H-pyrazolo[4,3-c]pyridin-4-yl)benzyl)-5-fluoro-2-methoxybenzamide] | > 50 | > 50 |
| > 50 | COc1ccc(F)cc1C(=O)NCc1ccc(-c2nc(C(C)C(F)(F)F)c(-c3ccccn3)c3[nH]nc(N)c23)cc1 (centres unmarked) [Example 5, N-(4-(3-amino-7-(pyridin-2-yl)-6-(1,1,1-trifluoropropan-2-yl)-1H-pyrazolo[4,3-c]pyridin-4-yl)benzyl)-5-fluoro-2-methoxybenzamide] | > 50 | > 50 |
| > 50 | COc1ccc(F)cc1C(=O)NCc1ccc(-c2nc(C(C)C(F)(F)F)c(-c3cnccn3)c3[nH]nc(N)c23)cc1 (centres unmarked) [Example 8, N-(4-(3-amino-7-(pyrazin-2-yl)-6-(1,1,1-trifluoropropan-2-yl)-1H-pyrazolo[4,3-c]pyridin-4-yl)benzyl)-5-fluoro-2-methoxybenzamide] | > 50 | > 50 |
| > 50 | COc1ccc(F)cc1C(=O)NCc1ccc(-c2nc(C(C)C(F)(F)F)c(-c3cncnc3)c3[nH]nc(N)c23)cc1 (centres unmarked) [Example 10, N-(4-(3-amino-7-(pyrimidin-5-yl)-6-(1,1,1-trifluoropropan-2-yl)-1H-pyrazolo[4,3-c]pyridin-4-yl)benzyl)-5-fluoro-2-methoxybenzamide] | > 50 | > 50 |
| > 50 | COc1ccc(F)cc1C(=O)NCc1ccc(-c2nc(C(C)C(F)(F)F)c(-c3ccnnc3)c3[nH]nc(N)c23)cc1 (centres unmarked) [Example 11, N-(4-(3-amino-7-(pyridazin-4-yl)-6-(1,1,1-trifluoropropan-2-yl)-1H-pyrazolo[4,3-c]pyridin-4-yl)benzyl)-5-fluoro-2-methoxybenzamide] | > 50 | > 50 |
| > 50 | COc1ccc(F)cc1C(=O)NCc1ccc(-c2nc(C(C)C(F)(F)F)c(-c3ccc(C(F)(F)F)cn3)c3[nH]nc(N)c23)cc1 (centres unmarked) [Example 12, N-(4-(3-amino-7-(5-(trifluoromethyl)pyridin-2-yl)-6-(1,1,1-trifluoropropan-2-yl)-1H-pyrazolo[4,3-c]pyridin-4-yl)benzyl)-5-fluoro-2-methoxybenzamide] | > 50 | > 50 |
| > 50 | COc1ccc(F)cc1C(=O)NCc1ccc(-c2nc(C(C)C(F)(F)F)c(-c3ccc(F)cn3)c3[nH]nc(N)c23)cc1 (centres unmarked) [Example 13, N-(4-(3-amino-7-(5-fluoropyridin-2-yl)-6-(1,1,1-trifluoropropan-2-yl)-1H-pyrazolo[4,3-c]pyridin-4-yl)benzyl)-5-fluoro-2-methoxybenzamide] | > 50 | > 50 |
| > 50 | COc1ccc(F)cc1C(=O)NCc1ccc(-c2nc(C(C)C(F)(F)F)c(-c3ccccc3)c3[nH]nc(N)c23)cc1 (centres unmarked) [Example 14, N-(4-(3-amino-7-phenyl-6-(1,1,1-trifluoropropan-2-yl)-1H-pyrazolo[4,3-c]pyridin-4-yl)benzyl)-5-fluoro-2-methoxybenzamide] | > 50 | > 50 |
| 10 to 50 | COc1ccc(F)cc1C(=O)NCc1ccc(-c2ncc(-c3cccnn3)c3[nH]nc(N)c23)cc1 [Example 40, N-(4-(3-amino-7-(pyridazin-3-yl)-1H-pyrazolo[4,3-c]pyridin-4-yl)benzyl)-5-fluoro-2-methoxybenzamide] | 10 to 50 | > 50 |
